ChEMBL document CHEMBL1201862, “PubChem BioAssay data set” (2004)
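Following 48 hours of exposure in 96-well plates, responses at five concentrations were used to interpolate endpoints linearly. GI50 marks 50% less growth.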 Active and inactive are the calls of the source. Cut-off read from the data, not from the text of the source: active = GI50 up to about 1.1 µM and inactive = higher. Where a SMILES comes first, the peptide text is derived from it. The star is where a group is joined. Cbz = O=C(OCc1ccccc1)*

Columns and labels:
Assay in all cases: growth of human tumour cells (NCI), 48 h
[1] = test system: SK-MEL-5
[2] = test system: IGROV-1
[3] = test system: SF-539
[4] = test system: SF-268
[5] = test system: MDA-MB-435
[6] = test system: NCI-H226
[7] = test system: KM12
[8] = test system: RPMI-8226
[9] = test system: MOLT-4
[10] = test system: UO-31
[11] = test system: PC-3
[12] = test system: SF-295
[13] = test system: NCI/ADR-RES
[14] = test system: MDA-N
[15] = test system: TK-10
[16] = test system: CCRF-CEM
[17] = test system: T47D
[18] = test system: Hs-578T
[19] = test system: A498

SMILES | GI50 [1] | GI50 [2] | GI50 [3] | GI50 [4] | GI50 [5] | GI50 [6] | GI50 [7] | GI50 [8] | GI50 [9] | GI50 [10] | GI50 [11] | GI50 [12] | GI50 [13] | GI50 [14] | GI50 [15] | GI50 [16] | GI50 [17] | GI50 [18] | GI50 [19]
O=C1CC(c2ccc(Cl)cc2)C2(C(=O)NC(=O)NC2=O)C(c2ccc(Cl)cc2)C1 (configuration not stated) | 14.5 µM (inactive) | 18 µM (inactive) | 28.2 µM (inactive) | 42.8 µM (inactive) | 17.3 µM (inactive) | 16 µM (inactive) | 36.4 µM (inactive) | 10.3 µM (inactive) | 0.0075 µM (active) | 25.6 µM (inactive) | 30.5 µM (inactive) | 28.8 µM (inactive) | 26.4 µM (inactive) | 19.8 µM (inactive) | 54.8 µM (inactive) | 30.3 µM (inactive) | 17.9 µM (inactive) | – | –
Cc1cc(N(C)c2ccccc2)nc(N(C)c2ccccc2)n1 | 27.1 µM (inactive) | 39 µM (inactive) | 27.1 µM (inactive) | 54 µM (inactive) | 42.9 µM (inactive) | 34.6 µM (inactive) | 18.1 µM (inactive) | 28.8 µM (inactive) | 33.7 µM (inactive) | 80.2 µM (inactive) | 43.3 µM (inactive) | 20.2 µM (inactive) | 58.3 µM (inactive) | 52.4 µM (inactive) | 55.7 µM (inactive) | 23.6 µM (inactive) | – | 26.8 µM (inactive) | 64.9 µM (inactive)
O=CC12C3CCC1C2C(=O)C3 (configuration not stated) | > 100 µM (inactive) | > 100 µM (inactive) | > 100 µM (inactive) | > 100 µM (inactive) | > 100 µM (inactive) | > 100 µM (inactive) | > 100 µM (inactive) | > 100 µM (inactive) | > 100 µM (inactive) | – | > 100 µM (inactive) | > 100 µM (inactive) | > 100 µM (inactive) | > 100 µM (inactive) | > 100 µM (inactive) | > 100 µM (inactive) | – | – | –
COc1ccc(N[S+]([O-])c2cccc(C)c2)cc1 (configuration not stated) | 25.6 µM (inactive) | 28.3 µM (inactive) | 27.8 µM (inactive) | 30.5 µM (inactive) | 34.9 µM (inactive) | > 100 µM (inactive) | 17.5 µM (inactive) | 26.2 µM (inactive) | 35.3 µM (inactive) | 20.4 µM (inactive) | > 100 µM (inactive) | > 100 µM (inactive) | 14 µM (inactive) | > 100 µM (inactive) | > 100 µM (inactive) | 48 µM (inactive) | – | 87.9 µM (inactive) | –
CC1C(c2ccccc2)NC(c2ccccc2)CC1(N)C#N (configuration not stated) | > 100 µM (inactive) | > 100 µM (inactive) | > 100 µM (inactive) | > 100 µM (inactive) | > 100 µM (inactive) | > 100 µM (inactive) | > 100 µM (inactive) | – | > 100 µM (inactive) | > 100 µM (inactive) | > 100 µM (inactive) | > 100 µM (inactive) | > 100 µM (inactive) | > 100 µM (inactive) | > 100 µM (inactive) | > 100 µM (inactive) | > 100 µM (inactive) | > 100 µM (inactive) | –
COC(=O)c1cc(C#N)[nH]c1-c1cccs1 | – | – | > 100 µM (inactive) | > 100 µM (inactive) | > 100 µM (inactive) | > 100 µM (inactive) | > 100 µM (inactive) | 36.6 µM (inactive) | > 100 µM (inactive) | 81.8 µM (inactive) | 47.1 µM (inactive) | 86.5 µM (inactive) | 33.7 µM (inactive) | > 100 µM (inactive) | – | 48.6 µM (inactive) | 24.4 µM (inactive) | – | 37.8 µM (inactive)
OC(CCNCc1ccccc1)c1ccc2ccccc2c1 (configuration not stated) | 17.2 µM (inactive) | 16 µM (inactive) | 16.9 µM (inactive) | 18.9 µM (inactive) | 23 µM (inactive) | 23.8 µM (inactive) | 17 µM (inactive) | 23.8 µM (inactive) | 31.1 µM (inactive) | 16 µM (inactive) | 20.3 µM (inactive) | 33 µM (inactive) | 24.7 µM (inactive) | – | 18.3 µM (inactive) | 1.68 µM (inactive) | 24 µM (inactive) | 20.6 µM (inactive) | 19.4 µM (inactive)
Cc1ccc(-c2cc[n+]3c(n2)oc2ccccc23)cc1 | – | 26.8 µM (inactive) | 25.1 µM (inactive) | 43.9 µM (inactive) | 24.7 µM (inactive) | – | 47.1 µM (inactive) | 12.5 µM (inactive) | 10.8 µM (inactive) | 67.3 µM (inactive) | – | 26.7 µM (inactive) | > 100 µM (inactive) | 31.6 µM (inactive) | – | 10.3 µM (inactive) | 16.3 µM (inactive) | 27.8 µM (inactive) | 19.1 µM (inactive)
O=C1Nc2ccccc2C(=O)O/C(Cc2ccccc2)=N\c2ccccc21 | > 100 µM (inactive) | > 100 µM (inactive) | > 100 µM (inactive) | > 100 µM (inactive) | > 100 µM (inactive) | > 100 µM (inactive) | > 100 µM (inactive) | > 100 µM (inactive) | > 100 µM (inactive) | > 100 µM (inactive) | > 100 µM (inactive) | > 100 µM (inactive) | > 100 µM (inactive) | > 100 µM (inactive) | > 100 µM (inactive) | 36.1 µM (inactive) | > 100 µM (inactive) | – | –
COc1ccc(-c2cc(-c3ccccc3)nc3c2CC(=O)Nc2ccccc2-3)cc1OC | 68.5 µM (inactive) | > 100 µM (inactive) | 13.9 µM (inactive) | 0.933 µM (active) | > 100 µM (inactive) | 2.92 µM (inactive) | > 100 µM (inactive) | > 100 µM (inactive) | > 100 µM (inactive) | 5.69 µM (inactive) | > 100 µM (inactive) | > 100 µM (inactive) | 1.37 µM (inactive) | – | > 56.1 µM (inactive) | > 100 µM (inactive) | > 68.9 µM (inactive) | 0.855 µM (active) | 1.89 µM (inactive)
CCOC(=O)CCC(NC(=O)C(CC(=O)OC)NC(=O)OCc1ccccc1)C(=O)NC(CC(=O)OC)C(=O)NC(CCC(=O)OCC)C(=O)NC(CC(=O)OC)C(=O)NC(CCC(=O)OCC)C(=O)NC(CC(=O)OCC)C(=O)OCC (configuration not stated) (Cbz-D(OMe)E(OEt)D(OMe)E(OEt)D(OMe)E(OEt)D(OEt)-OEt; configuration not given here) | > 100 µM (inactive) | > 100 µM (inactive) | – | – | > 100 µM (inactive) | > 100 µM (inactive) | – | > 100 µM (inactive) | > 100 µM (inactive) | > 100 µM (inactive) | > 100 µM (inactive) | – | – | > 100 µM (inactive) | > 100 µM (inactive) | > 100 µM (inactive) | > 100 µM (inactive) | – | 98.9 µM (inactive)
O=C(NCP(=O)(O)O)c1cccnc1 [(NICOTINAMIDOMETHYL)PHOSPHONIC ACID] | > 100 µM (inactive) | > 100 µM (inactive) | > 100 µM (inactive) | – | > 100 µM (inactive) | > 100 µM (inactive) | > 100 µM (inactive) | > 100 µM (inactive) | > 100 µM (inactive) | > 100 µM (inactive) | > 100 µM (inactive) | > 100 µM (inactive) | > 100 µM (inactive) | > 100 µM (inactive) | > 100 µM (inactive) | > 100 µM (inactive) | > 100 µM (inactive) | – | > 100 µM (inactive)
